Laboratory results as given in patent US5604262A, “Topical antimicrobial agents” (Research Corporation Technologies, Inc., priority 1995, dated 1997).
Converted amounts (≈) assume the structure as drawn.

Assays:
[1] = tested on: Pr. acnes; details: Kubo et al. 1994; cited from earlier work
[2] = tested on: Bacillus subtilis ATCC 9372; assay: MIC by two-fold serial broth dilution; assay type: cell-based; details: Bacillus subtilis, ATCC9372, 48 h; B. subtilis; NYG broth; two days, turbidity OD 660 nm
From the text: (§1) The microorganisms tested were from the American Type Culture Collection (Rockville, Md.). They are Bacillus subtilis ATCC 9372, Brevibacterium ammoniagenes ATCC 6872, Staphylococcus aureus ATCC 12598, Streptococus mutans ATCC 25175, Propionibacterium acnes ATCC 11827, Pseudimonas aeruginosa ATCC 10145, Enterobacter aerogenes ATCC 13048, Eschericia coli ATCC 9637, Proteus vulgaris ATCC […], Saccharomyces cerevisiae ATCC 7754, Candida utilis ATCC 9226, Pityrosporum ovale ATCC 14521, Penicillium chrysogenum ATCC 10106 and Trichophyton mentagrophytes ATCC 18748.
(§2) The bacterial culture media except for S. mutans was 0.8% nutrient broth (BBL), 0.5% yeast Extract (Difco) and 0.1% glucose (NYG broth). S. mutans was cultured in 3.7% brain heart infixsion broth (Difco). All fungi, except P. ovale and T. mentagrophytes were cultured in a 2.5% malt extract broth (BBL). P. ovale was cultured in 1% bactopeptone (Difco), 0.5% yeast extract, 1% glucose and 0.1% corn oil. For T. mentagrophytes the culture media was 1% bactopeptone and 4% glucose.
(§3) Freeze dried samples were prepared for testing as follows. B. subtilis, S. cerevisiae, C. utilis, and P. ovale, were shake-cultured for two days at 30° C. P. chrysogenum and T. mentagrophytes were shake-cultured for 5 days at 30° C. B. ammoniagenes and E. aerogenes were stationarily cultured at 30° C. S. aureus, S. mutans, P. acnes, P. aeruginosa, E. coli and P. vulgaris were stationarily cultured at 37° C.
(§4) The minimum inhibitory concentration (MIC) of the 3-alken-2-ones (compounds 1-4, 6-8) and 3,13-tetradecadien-2-one (compound 5) was performed using a two-fold serial broth dilution. Each test compound was dissolved in DMF and 30 μL of this sample was dissolved in 3 mL of the applicable medium. A 30 μL sample of the previously described culture of each microorganism was added to the various medium solutions. After two days, the cultures of B. subtilis, S. cerevisiae, C. utilis B. ammoniagenes, E. aerogenes, S. aureus, S. mutans, P. acnes, P. aeruginosa, E. coli and P. vulgaris were examined for turbidity (OD at 660 nm). The fungi, P. ovale, P. chrysogenum and T. mentagrophytes, were examined visually for growth at 3 days (P. ovale) and 5 days (P. chrysogenum and T. mentagrophytes). The MIC was determined as the lowest concentration for each compound that no growth was observed. The highest concentration used in these tests was 800 μg/mL.

[3] = tested on: Brevibacterium ammoniagenes ATCC 6872; assay: MIC by two-fold serial broth dilution; assay type: cell-based; details: Corynebacterium ammoniagenes, ATCC6872, 48 h; B. ammoniagenes; NYG broth; two days, turbidity OD 660 nm
From the text: as §1, §2, §3, §4

[4] = tested on: Enterobacter aerogenes ATCC 13048; assay: MIC by two-fold serial broth dilution; assay type: cell-based; details: Klebsiella aerogenes, ATCC13048, 48 h; E. aerogenes; NYG broth; two days, turbidity OD 660 nm
From the text: as §1, §2, §3, §4

[5] = tested on: Eschericia coli ATCC 9637; assay: MIC by two-fold serial broth dilution; assay type: cell-based; details: Escherichia coli, ATCC9637, 48 h; E. coli; NYG broth; two days, turbidity OD 660 nm
From the text: as §1, §2, §3, §4

[6] = tested on: Penicillium chrysogenum ATCC 10106; assay: MIC by two-fold serial broth dilution; assay type: cell-based; details: Penicillium chrysogenum, ATCC10106, 120 h; P. chrysogenum; malt extract broth; 5 days, visual
From the text: as §1, §2, §3, §4

[7] = tested on: Pityrosporum ovale ATCC 14521; assay: MIC by two-fold serial broth dilution; assay type: cell-based; details: 72 h; P. ovale; bactopeptone/yeast extract/glucose/corn oil; 3 days, visual
From the text: as §1, §2, §3, §4

[8] = tested on: Propionibacterium acnes ATCC 11827; assay: MIC by two-fold serial broth dilution; assay type: cell-based; details: P. acnes; for MIC: Cutibacterium acnes, ATCC11827, 48 h, NYG broth, two days, turbidity OD 660 nm
From the text: as §1, §2, §3, §4

[9] = tested on: Proteus vulgaris ATCC 133315; assay: MIC by two-fold serial broth dilution; assay type: cell-based; details: ATCC133315, 48 h, P. vulgaris, NYG broth, two days, turbidity OD 660 nm
From the text: as §1, §2, §3, §4

[10] = tested on: Pseudimonas aeruginosa ATCC 10145; assay: MIC by two-fold serial broth dilution; assay type: cell-based; details: Pseudomonas aeruginosa, ATCC10145, 48 h; P. aeruginosa; NYG broth; two days, turbidity OD 660 nm
From the text: as §1, §2, §3, §4

[11] = tested on: Saccharomyces cerevisiae ATCC 7754; assay: MIC by two-fold serial broth dilution; assay type: cell-based; details: Saccharomyces cerevisiae, ATCC7754, 48 h; S. cerevisiae; malt extract broth; two days, turbidity OD 660 nm
From the text: as §1, §2, §3, §4

[12] = tested on: Staphylococcus aureus ATCC 12598; assay: MIC by two-fold serial broth dilution; assay type: cell-based; details: Staphylococcus aureus, ATCC12598, 48 h; S. aureus; NYG broth; two days, turbidity OD 660 nm
From the text: as §1, §2, §3, §4

[13] = tested on: Streptococus mutans ATCC 25175; assay: MIC by two-fold serial broth dilution; assay type: cell-based; details: S. mutans; for MIC: Streptococcus mutans, ATCC25175, 48 h, brain heart infusion broth, two days, turbidity OD 660 nm
From the text: as §1, §2, §3, §4

[14] = tested on: Trichophyton mentagrophytes ATCC 18748; assay: MIC by two-fold serial broth dilution; assay type: cell-based; details: ATCC18748, 120 h, T. mentagrophytes, bactopeptone/glucose, 5 days, visual
From the text: as §1, §2, §3, §4

[15] = tested on: Candia utilis ATCC 9226; assay: MIC by two-fold serial broth dilution; assay type: cell-based, Candida utilis; details: Williopsis jadinii, ATCC9226, 48 h; C. utilis; malt extract broth; two days, turbidity OD 660 nm
From the text: as §1, §2, §3, §4

[16] = tested on: bacteria and fungi in the test, except S. mutans and P. acnes; assay: MIC test, all bacteria and fungi except S. mutans and P. acnes; assay type: cell-based; details: all of the bacteria and fungi in the test
From the text: as §1, §2
Freeze dried samples were prepared for testing as follows. […]
The minimum inhibitory concentration (MIC) of the 3-alken-2-ones (compounds 1-4, 6-8) and 3,13-tetradecadien-2-one (compound 5) was performed using a two-fold serial broth dilution. […] The MIC was determined as the lowest concentration for each compound that no growth was observed. […]

[17] = tested on: S. mutans; details: Kubo et al. 1993; cited from earlier work
[18] = tested on: fungi; details: Moleyar et al. 1986; cited from earlier work

| Structure (SMILES) | activity against Pr. acnes (in words) [1] | MIC [2] [µg/mL] | MIC [3] [µg/mL] | MIC [4] [µg/mL] | MIC [5] [µg/mL] | MIC [6] [µg/mL] | MIC [7] [µg/mL] | MIC [8] [µg/mL] | activity (in words) [8] | MIC [9] [µg/mL] | MIC [10] [µg/mL] | MIC [11] [µg/mL] | MIC [12] [µg/mL] | activity (in words) [13] | MIC [13] [µg/mL] | MIC [14] [µg/mL] | MIC [15] [µg/mL] | activity (in words) [16] | antibacterial activity (in words) [17] | antifungal activity (in words) [18] |
| --- | --- | --- | --- | --- | --- | --- | --- | --- | --- | --- | --- | --- | --- | --- | --- | --- | --- | --- | --- | --- |
| CC(C)=CCCC(C)=CCCC(C)=CCCC(C)O (centres unmarked) [farnesyl acetol] | exhibited activity |  |  |  |  |  |  |  |  |  |  |  |  |  |  |  |  |  |  |  |
| CCCCCCCCCCCC/C=C/C(C)=O [Compound 7, (E)-3-Hexadecen-2-one] |  | > 800 | > 800 | > 800 | > 800 | > 800 | > 800 | 3.13 (≈ 13.1 µM) | strong activity | > 800 | > 800 | > 800 | > 800 | weakly active | 400 (≈ 1680 µM) | > 800 | > 800 | inactive |  |  |
| CCCCCCC/C=C/C(C)=O [Compound 1, (E)-3-Undecen-2-one] |  | 100 (≈ 594 µM) | 200 (≈ 1190 µM) | > 800 | > 800 | 100 (≈ 594 µM) | 100 (≈ 594 µM) | 50 (≈ 297 µM) |  | 50 (≈ 297 µM) | > 800 | 800 (≈ 4750 µM) | 200 (≈ 1190 µM) |  | 100 (≈ 594 µM) | 100 (≈ 594 µM) | 50 (≈ 297 µM) |  |  |  |
| CC(C)=CCCC(C)=CCCC(C)O (centres unmarked) [geranylacetol] | exhibited activity |  |  |  |  |  |  |  |  |  |  |  |  |  |  |  |  |  |  |  |
| CCCCCCCC/C=C/C(C)=O [Compound 2, (E)-3-Dodecen-2-one] |  | 100 (≈ 549 µM) | 100 (≈ 549 µM) | > 800 | > 800 | 100 (≈ 549 µM) | 100 (≈ 549 µM) | 25 (≈ 137 µM) |  | 50 (≈ 274 µM) | > 800 | 800 (≈ 4390 µM) | 100 (≈ 549 µM) |  | 50 (≈ 274 µM) | 100 (≈ 549 µM) | 400 (≈ 2190 µM) |  |  |  |
| CC(=O)/C=C/C1C(C)=CCCC1(C)C (stereo not drawn) [α-ionone] |  |  |  |  |  |  |  |  |  |  |  |  |  |  |  |  |  |  | moderate antibacterial activity |  |
| C=C(C)C1CC=C(C)C(=O)C1 (centres unmarked) [Carvone] |  |  |  |  |  |  |  |  |  |  |  |  |  |  |  |  |  |  |  | antifungal activity |
| CCCCCCCCCCCCC/C=C/C(C)=O [Compound 8, (E)-3-Heptadecen-2-one] |  | > 800 | > 800 | > 800 | > 800 | > 800 | > 800 | 3.13 (≈ 12.4 µM) | strong activity | > 800 | > 800 | > 800 | > 800 |  | 800 (≈ 3170 µM) | > 800 | > 800 | inactive |  |  |
